Results on seven compounds are retold here after patent publication US20260078119A1, “DEGRADER COMPOUNDS AND USES THEREOF” (Bristol-Myers Squibb Company, priority 2024, published 2026).

One experiment has as its target T1, FAK (Homo sapiens, UniProt Q05397).
T1 construct: homozygous knock-in of a HiBiT tag (Promega Corporation, Madison, WI) to the C-terminus of the FAK gene in its natural genomic locus; endogenous in cells; host or cells: JHH-4-FAK-HiBiT clone d01 (CRISPR-Cas9 knock-in at the endogenous locus)
Kind of experiment: FAK-HiBiT Degradation Assay. Type of experiment: cell-based. To be noted: for DC50: JHH-4-FAK-HiBiT clone d01 cells, two hours incubation, 10-point dose response, 3-fold dilution starting at 1 μM, Nano-Glo HiBiT luminescence, read-out: FAK HiBiT EC50; for FAK HiBiT Ymin: lower limit of the four parameter fit (value A), Ymax derived using DMSO control, JHH-4-FAK-HiBiT cells, two hours. A digest of the protocol:
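JHH-4 cells with homozygous CRISPR knock-in of C-terminal HiBiT on endogenous FAK, treated 2 h at 37 °C with compounds in 10-point 3-fold series from 1 μM. HiBiT lytic luminescence read; EC50 from four-parameter logistic fit, Ymax set by DMSO control, Ymin as lower fit limit.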
A general note: The HiBiT peptide binds its large partner to form an active luciferase.

Another experiment deals with CAL-51 cells. Description: CAL-51 Cell Proliferation Assay. The experiment is classed as cell-based. Conditions: for EC50: Homo sapiens, 120 hours incubation, 10-point dose response, 4-fold dilutions starting at 10 μM, Cell-Titer-Glo, read-out: CAL-51 Prolif EC50; for CAL-51 Prolif Ymin: minimal percent of DMSO control observed in the concentrations tested (Ymin-obs), 120 hours. A digest of the protocol: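 Cells seeded at 350/well in RPMI complete medium onto 10-point, 4-fold compound dilutions from 10 μM (0.1% DMSO), in duplicate, and grown 120 h at 37 °C. CellTiter-Glo luminescence, blank-subtracted and normalised to DMSO, was fitted with a four-parameter logistic to give EC50; Ymin-obs is the lowest observed percent of DMSO control.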

T1 sequence (Q05397 whole entry): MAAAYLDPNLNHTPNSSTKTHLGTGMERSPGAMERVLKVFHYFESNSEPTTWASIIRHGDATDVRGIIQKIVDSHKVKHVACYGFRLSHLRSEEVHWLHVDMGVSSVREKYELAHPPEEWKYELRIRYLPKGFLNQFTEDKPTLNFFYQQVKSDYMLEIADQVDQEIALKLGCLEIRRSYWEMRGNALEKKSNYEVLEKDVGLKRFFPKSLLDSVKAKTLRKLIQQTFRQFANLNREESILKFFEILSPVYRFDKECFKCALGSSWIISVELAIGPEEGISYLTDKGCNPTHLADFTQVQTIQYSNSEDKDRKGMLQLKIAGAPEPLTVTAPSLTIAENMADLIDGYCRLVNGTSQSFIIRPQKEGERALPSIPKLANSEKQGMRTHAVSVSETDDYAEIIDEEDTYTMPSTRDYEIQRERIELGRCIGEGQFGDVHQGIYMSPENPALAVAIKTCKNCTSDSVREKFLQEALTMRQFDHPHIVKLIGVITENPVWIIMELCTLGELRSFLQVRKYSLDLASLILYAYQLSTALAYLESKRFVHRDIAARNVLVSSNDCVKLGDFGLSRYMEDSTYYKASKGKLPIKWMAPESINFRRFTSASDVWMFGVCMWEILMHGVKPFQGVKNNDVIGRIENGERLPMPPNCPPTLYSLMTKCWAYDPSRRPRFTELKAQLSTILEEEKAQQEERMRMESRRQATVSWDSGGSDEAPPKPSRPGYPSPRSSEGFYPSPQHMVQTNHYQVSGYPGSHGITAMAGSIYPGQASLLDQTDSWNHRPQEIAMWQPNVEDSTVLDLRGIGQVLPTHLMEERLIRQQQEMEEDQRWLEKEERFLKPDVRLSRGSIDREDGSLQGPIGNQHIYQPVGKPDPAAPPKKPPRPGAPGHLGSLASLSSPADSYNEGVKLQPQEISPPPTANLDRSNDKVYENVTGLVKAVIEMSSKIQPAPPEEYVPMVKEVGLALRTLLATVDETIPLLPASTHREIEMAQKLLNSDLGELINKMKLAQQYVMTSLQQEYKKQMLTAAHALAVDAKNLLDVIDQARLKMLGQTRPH

The EC50 is the concentration at which the effect is half-maximal. In the case of `Cc1cc(Cl)cnc1-c1c(F)c(N2CC(F)C2)nc2c1cnn2Cc1ccc2c(c1)CN(C1CCC(=O)NC1=O)C2=O` (stereo not shown) [Example 37, 3-(5-{[4-(5-chloro-3-methylpyridin-2-yl)-5-fluoro-6-(3-fluoroazetidin-1-yl)-1H-pyrazolo[3,4-b]pyridin-1-yl]methyl}-1-oxo-2,3-dihydro-1H-isoindol-2-yl)piperidine-2,6-dione], on FAK, the DC50 was 0.98 nM and the “FAK HiBiT Ymin” value is reported as 7.33. Moreover, in the experiment with CAL-51 cells, the 50% effective concentration (EC50) amounted to 0.6 nM and the “CAL-51 Prolif Ymin” value worked out at 19.81.

Regarding `CCOc1ccc(Cl)c(-c2cc(N3CC(F)C3)nc3c2cnn3Cc2ccc3c(c2)CN([C@H]2CCC(=O)NC2=O)C3=O)n1` [Example 111, (3S)-3-(5-{[4-(3-chloro-6-ethoxypyridin-2-yl)-6-(3-fluoroazetidin-1-yl)-1H-pyrazolo[3,4-b]pyridin-1-yl]methyl}-1-oxo-2,3-dihydro-1H-isoindol-2-yl)piperidine-2,6-dione], at FAK, the DC50 turned out to be 45.8 nM and the “FAK HiBiT Ymin” value turned out to be 73.08. Further, in the experiment with CAL-51 cells, the 50% effective concentration (EC50) was found to be 551 nM and the “CAL-51 Prolif Ymin” value was 60.03.

Take `CCOc1cnc(-c2cc(N3CC(F)C3)nc3c2cnn3Cc2ccc3c(c2)CN(C2CCC(=O)NC2=O)C3=O)c(C#N)c1` (stereo not shown) [Example 46, 2-(1-{[2-(2,6-dioxopiperidin-3-yl)-1-oxo-2,3-dihydro-1H-isoindol-5-yl]methyl}-6-(3-fluoroazetidin-1-yl)-1H-pyrazolo[3,4-b]pyridin-4-yl)-5-ethoxypyridine-3-carbonitrile]: on FAK, the DC50 was 1.79 nM and the “FAK HiBiT Ymin” value is given as 8.57. Moreover, in the experiment on CAL-51 cells, the EC50 came to 0.91 nM and the “CAL-51 Prolif Ymin” value was determined as 30.10.

On to `O=C1CC[C@H](N2Cc3cc(Cn4ncc5c(-c6ncc(Cl)cc6F)cc(N6CC(F)C6)nc54)ccc3C2=O)C(=O)N1` [Example 47, (3S)-3-(5-{[4-(5-chloro-3-fluoropyridin-2-yl)-6-(3-fluoroazetidin-1-yl)-1H-pyrazolo[3,4-b]pyridin-1-yl]methyl}-1-oxo-2,3-dihydro-1H-isoindol-2-yl)piperidine-2,6-dione], for which, on FAK, the DC50 was determined as 1.8 nM and the “FAK HiBiT Ymin” value was 17.06. Further, in the experiment on CAL-51 cells, the EC50 stood at 1.96 nM and the “CAL-51 Prolif Ymin” value is given as 39.85.

As to `CCOc1cnc(-c2cc(N3CC(F)C3)nc3c2cnn3Cc2ccc3c(c2)CN(C2CCC(=O)NC2=O)C3=O)c(CC)c1` (stereo not shown) [Example 74, 3-(5-{[4-(5-ethoxy-3-ethylpyridin-2-yl)-6-(3-fluoroazetidin-1-yl)-1H-pyrazolo[3,4-b]pyridin-1-yl]methyl}-1-oxo-2,3-dihydro-1H-isoindol-2-yl)piperidine-2,6-dione], at FAK, the DC50 came out at 6.88 nM and the “FAK HiBiT Ymin” value was found to be 8.00. In the experiment with CAL-51 cells, the 50% effective concentration (EC50) turned out to be 4.11 nM and the “CAL-51 Prolif Ymin” value worked out at 34.11.

Regarding `Cc1cc(C(F)(F)F)cnc1-c1cc(N2CC(F)C2)nc2c1cnn2Cc1ccc2c(c1)CN(C1CCC(=O)NC1=O)C2=O` (stereo not shown) [Example 29, 3-(5-{[6-(3-fluoroazetidin-1-yl)-4-[3-methyl-5-(trifluoromethyl)pyridin-2-yl]-1H-pyrazolo[3,4-b]pyridin-1-yl]methyl}-1-oxo-2,3-dihydro-1H-isoindol-2-yl)piperidine-2,6-dione], at FAK, the DC50 was determined as 0.71 nM and the “FAK HiBiT Ymin” value is listed as 8.83. In addition, in the experiment with CAL-51 cells, the EC50 was 1.23 nM and the “CAL-51 Prolif Ymin” value came to 30.94.

Turning to `Cc1cc(C(F)(F)F)ccc1-c1cc(N2CC[C@H](O)C2)nc2c1cnn2Cc1ccc2c(c1)CN([C@H]1CCC(=O)NC1=O)C2=O` [Example 63, (3S)-3-[5-({6-[(3S)-3-hydroxypyrrolidin-1-yl]-4-[2-methyl-4-(trifluoromethyl)phenyl]-1H-pyrazolo[3,4-b]pyridin-1-yl}methyl)-1-oxo-2,3-dihydro-1H-isoindol-2-yl]piperidine-2,6-dione], at FAK, the DC50 amounted to 4.08 nM and the “FAK HiBiT Ymin” value was determined as 8.81. Further, in the experiment on CAL-51 cells, the EC50 was determined as 1.92 nM and the “CAL-51 Prolif Ymin” value was 31.58.
